Patent US8044094B2, “Agents for preventing and treating disorders connected to impaired neurotransmission” (DSM IP Assets B.V., priority 2004, dated 2011)

Tests used:
MAO-A = molecular target: T1, MAO-A (Homo sapiens, UniProt P21397); assay: MAO-A inhibition, Amplex Red Monoamine Oxidase Assay Kit, colorimetric; type: biochemical; settings: substrate p-tyramine
T1 construct: purchased Sigma M7316
T1 sequence (P21397 1-527): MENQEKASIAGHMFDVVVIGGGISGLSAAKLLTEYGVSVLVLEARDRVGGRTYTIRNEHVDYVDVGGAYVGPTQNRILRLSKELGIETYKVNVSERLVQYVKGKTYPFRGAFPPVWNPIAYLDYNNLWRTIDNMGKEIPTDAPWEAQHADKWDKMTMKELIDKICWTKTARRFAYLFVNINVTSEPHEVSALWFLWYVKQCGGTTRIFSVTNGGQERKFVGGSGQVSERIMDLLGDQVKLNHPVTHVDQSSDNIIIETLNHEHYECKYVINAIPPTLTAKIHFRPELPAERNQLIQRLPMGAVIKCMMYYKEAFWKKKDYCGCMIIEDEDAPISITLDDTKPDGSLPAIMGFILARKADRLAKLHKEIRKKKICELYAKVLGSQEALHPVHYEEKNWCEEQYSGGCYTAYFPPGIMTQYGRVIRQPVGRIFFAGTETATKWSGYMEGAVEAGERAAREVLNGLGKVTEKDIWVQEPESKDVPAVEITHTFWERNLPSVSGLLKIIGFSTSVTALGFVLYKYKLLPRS
Protocol: From a stock solution of 0.0405 g of racemic obliquin (92.5%; equal to 37.5 mg of pure compound) in 750 μl of dimethylsulfoxide (DMSO), working solutions were prepared with a concentration of obliquin of 4. 10^−4M in reaction buffer (0.05 M sodium phosphate, pH 7.4, 0.2% DMSO). The final concentrations of obliquin in the test system were 10^−4 M, 10^−5 M, 10^−6 M, 10^−7 M.
For determining the inhibition of monoaminoxidases' activity, the Amplex Red Monoamine Oxidase Assay Kit (Molecular Probes Nr._A-12214, Colorimetric version) was conducted according to manufacturers instructions.
As substrates for MAO-A enzyme (Sigma Nr. M7316) p-tyramine and as substrate for MAO-B enzyme (Sigma Nr. M7441) benzylamine were used. The concentration of MAO-A enzyme was 8 Units/ml, and that of MAO-B 4 Units/ml in the working solution.
MAO-A and MAO-B Assay, Colorimetric Version:
For the assay, 50 μl of each working solution (see above) were used. As control solution, the obliquin containing working solution was replaced by 50 μl of the reaction buffer.
50 μl of diluted MAO-A with a final concentration of 2 Units/ml and 50 μl of diluted MAO-B with a final concentration of 1 Unit/ml, respectively, were added.
100 μl of the Amplex solution containing horseradish peroxidase (2 U/ml) and the substrate tyramine (for MAO-A) or the substrate benzylamine (for MAO-B) were added.
To allow a subtraction of the background absorption a mixture of 100 μl of the Amplex solution and 100 μl of the reaction buffer was measured as a “blank”.
The samples were incubated at room temperature in the dark for 1 hour, and then the extinction at 535 nm determined in a Softmax Microplate photometer (Molecular Device).

mice = assay: Porsolt's swim test (Behavioural Despair Test); type: in vivo; settings: for Duration of immobility ± Standard Error of Mean: 30 minutes before the test, last 4 of 6 minutes
Protocol: The “Behavioural Despair Test” or “Porsolt's Forced Swim Test” is a validated animal model for depression (see T. Nagatsu, NeuroToxicology 2004, 25, 11-20, especially p. 16, right column in the middle, in combination with Porsolt et al., Arch. Int. Pharmacodyn. 1977, 229, 327-336). It responds to enhancement of the transmission of several neurotransmitters including serotonine, dopamine and noradrenaline.
The test, which detects antidepressant activity, was carried out as described by Porsolt et al. in Arch. Int. Pharmacodyn. 1977, 229, 327-336. Mice which are forced to swim in a situation from which they cannot escape rapidly become immobile. Antidepressants decrease the duration of immobility.
Mice were individually placed in a cylinder (Height=24 cm, Diameter=13 cm) containing 10 cm water (22° C.) from which they could not escape. The mice were placed in the water for 6 minutes and the duration of immobility during the last 4 minutes was measured.
10 mice were studied per each of the four groups. The test was performed blind, i.e. the person carrying out the experiment was different from the person injecting the mice and didn't thus know to which of the four groups each mouse belonged.
Obliquin was evaluated at 3 doses each: at 10, 30, and 80 mg/kg body weight, administered intraperitonally 30 minutes before the test, and compared with a control group. The thus administered obliquin was dissolved in a saline solution containing 3 weight-% DMSO and 3 weight-% Tween® 80 (so called “vehicle”). To the control group the vehicle consisting of the saline solution containing 3 weight-% DMSO and 3 weight-% Tween® 80 was administered intraperitonally.
Data were analyzed by comparing the treated groups with the control group using the unpaired Student's T tests and Analysis of Variance (ANOVA).

With `C=C(C)[C@H]1COc2cc3oc(=O)ccc3cc2O1` (racemic) [Obliquin, obliquin] as the compound, how does the inhibition at 0.1 µM (MAO-A; obliquin 1 x 10^−7 M) read?
Its inhibition at 0.1 µM is 2%.

And the inhibition at 1 µM (MAO-A; obliquin 10 x 10^−7 M)?
Its inhibition at 1 µM is 2%.

And the inhibition at 10 µM (MAO-A; obliquin 100 x 10^−7 M)?
Its inhibition at 10 µM is 6.5%.

What about the inhibition at 100 µM (MAO-A; obliquin 1000 x 10^−7 M) of the same compound?
Its inhibition at 100 µM is 24.1%.

What about the “Duration of immobility ± Standard Error of Mean” value (mice; mice, 10 mg/kg body weight i.p.) of the same compound?
The value was 170.4 ± 11.1 s.

What about the “Duration of immobility ± Standard Error of Mean” value (mice; mice, 30 mg/kg body weight i.p.) of the same compound?
Its value is 150.9 ± 9.6 s.

What about the “Duration of immobility ± Standard Error of Mean” value (mice; mice, 80 mg/kg body weight i.p., p < 0.01 vs control) of the same compound?
The value was 132.1 ± 10.5 s.

What about the “Dose dependence of effect on immobility time” value (mice; mice, 10, 30, 80 mg/kg i.p., ANOVA p<0.05) of the same compound?
Its value is “significant dose dependent effect”.

And the “Reduction of immobility time” value (mice; mice, highest dose group (80 mg/kg i.p.), vs control group)?
The value was 25%.
